In article PMC3014287 (Molecular cell, 2010):
Values belong to the molecule of their own block, whether it stands above or below them.

Tests used:
[1] = molecular target: T1, PKCβII (Homo sapiens, UniProt P05771); experiment: […] kinase assay with substrate peptide, Dixon plot; format: biochemical
[2] = molecular target: AKAP79(1-81)-CKAR (human) (UniProt P24588)
[3] = molecular target: T1, PKCβII; experiment: […] kinase assay with substrate peptide, Dixon plot; format: biochemical; remark: listed apart in the source

- Ki [1]: 0.0145 ± 0.0046 µM
Molecule: CN(C)CCCn1cc(C2=C(c3c[nH]c4ccccc34)C(=O)NC2=O)c2ccccc21 [BIS I, bisindolylmaleimide I]

- T½ of the FRET response of the reporter to Oxo-M in CHO cells (cellular PKC) [2]: 8.3 s
Molecule: PKCβII (Calbiochem) (from UniProt P05771-2 1-673) (enzyme)

Molecule: O=C1NC(=O)C(c2c[nH]c3ccccc23)=C1c1c[nH]c2ccccc12 [BIS IV, bisindolylmaleimide IV]
- 32P kinase assay with substrate peptide, Dixon plot [3]: BIS IV, a bisindolylmaleimide derivative that lacks the dimethylamino group is an uncompetitive inhibitor with respect to the substrate peptide
